Molecular target: Ec-F1F0 (E. coli ATP synthase) (Escherichia coli, UniProt P0ABB0+P0ABB4)
Assay: NADH-driven ATP synthesis in proteoliposomes, luciferase luminescence
Format: biochemical
Settings: turnover only; 50 μM ADP, 20 mM Tris-PO4 pH 7.4, 5 mM MgCl2, 200 μM NADH, 20 °C

Sequence of Ec-F1F0 (E. coli ATP synthase) (P0ABB0 whole entry, looked up): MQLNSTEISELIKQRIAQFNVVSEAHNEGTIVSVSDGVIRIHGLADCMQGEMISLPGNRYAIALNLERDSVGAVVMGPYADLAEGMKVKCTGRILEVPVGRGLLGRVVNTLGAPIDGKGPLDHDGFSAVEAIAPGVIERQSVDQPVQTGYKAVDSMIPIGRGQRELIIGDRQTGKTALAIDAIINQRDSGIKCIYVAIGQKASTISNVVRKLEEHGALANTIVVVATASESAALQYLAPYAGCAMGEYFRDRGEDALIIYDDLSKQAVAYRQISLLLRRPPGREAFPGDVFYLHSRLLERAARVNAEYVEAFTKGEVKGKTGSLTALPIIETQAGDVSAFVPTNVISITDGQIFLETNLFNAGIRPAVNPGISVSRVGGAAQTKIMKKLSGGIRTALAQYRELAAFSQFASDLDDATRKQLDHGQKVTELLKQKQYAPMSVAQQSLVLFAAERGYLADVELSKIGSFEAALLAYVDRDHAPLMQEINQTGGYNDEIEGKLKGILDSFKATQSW
Sequence of Ec-F1F0 (E. coli ATP synthase) (P0ABB4 whole entry, looked up): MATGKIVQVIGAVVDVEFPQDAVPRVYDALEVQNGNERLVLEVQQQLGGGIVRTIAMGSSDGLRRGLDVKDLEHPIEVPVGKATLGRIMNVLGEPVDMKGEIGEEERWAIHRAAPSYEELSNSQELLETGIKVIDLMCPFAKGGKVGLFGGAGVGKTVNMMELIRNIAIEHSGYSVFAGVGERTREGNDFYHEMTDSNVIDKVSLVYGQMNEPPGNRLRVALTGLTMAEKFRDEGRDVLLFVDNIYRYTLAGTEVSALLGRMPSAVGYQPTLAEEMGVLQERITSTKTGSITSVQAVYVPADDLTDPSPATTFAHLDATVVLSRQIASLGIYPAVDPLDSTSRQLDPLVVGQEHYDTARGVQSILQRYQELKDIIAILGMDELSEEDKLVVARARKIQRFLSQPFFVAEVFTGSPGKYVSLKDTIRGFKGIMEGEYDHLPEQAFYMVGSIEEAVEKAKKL

For `Nc1ncnc2c1ncn2[C@@H]1O[C@H](COP(=O)(O)OP(=O)(O)O)[C@@H](O)[C@H]1O` [ADP], the “NADH-driven ATP synthesis in proteoliposomes, luciferase luminescence” value was “the Δp is used by Ec-F1F0 to generate ATP”.
